Reference: US6972319B1, “Pituitary adenylate cyclase activating peptide (PACAP)receptor 3 (R3) agonists and their pharmacological methods of use” (priority 1999, dated 2005)
pEC50: −log10 of the molar value. No end group written: not given here.

Key:
[1] = target: T1, PACAP-R3 (Homo sapiens, UniProt P41587); test: Cyclic AMP SPA on CHO cells expressing PACAP R3; type: cell-based; set-up: expressed in transfected cells; host or cells: CHO cells (Geneticin selection); details: for pEC50: cAMP SPA, CHO cells transfected with PACAP-R3, concentration at which 50% of maximum PACAP27 activity is achieved, NA = no detectable activities, read-out: R3 EC50; for R3 Selectivity: ratio of EC50 at R2 versus EC50 at R3
T1 sequence (P41587 24-438): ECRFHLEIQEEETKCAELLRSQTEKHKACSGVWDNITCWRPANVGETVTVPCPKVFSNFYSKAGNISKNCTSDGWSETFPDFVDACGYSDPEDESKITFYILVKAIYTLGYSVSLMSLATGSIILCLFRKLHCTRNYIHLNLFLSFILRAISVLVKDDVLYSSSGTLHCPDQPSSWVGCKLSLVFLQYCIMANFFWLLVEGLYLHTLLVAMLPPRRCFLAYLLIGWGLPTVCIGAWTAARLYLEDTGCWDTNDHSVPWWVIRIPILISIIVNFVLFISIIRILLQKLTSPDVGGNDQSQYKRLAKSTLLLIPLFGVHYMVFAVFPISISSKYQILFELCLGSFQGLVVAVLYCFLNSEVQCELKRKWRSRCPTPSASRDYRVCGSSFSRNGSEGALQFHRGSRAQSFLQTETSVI
Procedure, shortened: (§1)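 Potency reflects cyclic AMP accumulation, determined by SPA, after a 15 min, 37 C peptide exposure of CHO cells carrying the human receptor. Values are expressed relative to the maximal PACAP27 effect, with EC50 taken at its 50% level.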

[2] = target: T2, PACAP-R2 (Homo sapiens, UniProt P32241); test: Cyclic AMP SPA on CHO cells transfected with PACAP-R2; type: cell-based; details: cAMP SPA, concentration at which 50% of maximum PACAP27 activity is achieved, NA = no detectable activities, read-out: R2 EC50
T2 construct: expressed in transfected cells; host or cells: CHO cells
T2 sequence (P32241 31-457): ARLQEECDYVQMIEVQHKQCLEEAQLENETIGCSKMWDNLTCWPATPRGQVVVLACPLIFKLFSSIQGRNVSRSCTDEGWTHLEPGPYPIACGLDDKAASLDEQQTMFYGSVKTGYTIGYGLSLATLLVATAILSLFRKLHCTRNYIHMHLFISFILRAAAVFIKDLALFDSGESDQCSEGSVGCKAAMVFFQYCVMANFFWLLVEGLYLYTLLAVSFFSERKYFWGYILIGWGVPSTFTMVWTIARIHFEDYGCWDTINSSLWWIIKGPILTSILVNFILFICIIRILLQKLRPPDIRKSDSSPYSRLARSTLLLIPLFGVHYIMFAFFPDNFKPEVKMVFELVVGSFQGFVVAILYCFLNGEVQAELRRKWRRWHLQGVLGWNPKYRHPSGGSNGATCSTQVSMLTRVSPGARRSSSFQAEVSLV
Procedure, shortened: as §1

## HSDAVFTDNYTRLRKQMAAKKYLNSIKNKV [Peptide R3P169]
[1]
  pEC50: 9.70
  R3 Selectivity: 300
[2]
  pEC50: 7.22

## HSDGIFTDSYSRYRKQMAVKKYLKAVL-NH2 [PAC24]
[1]
  pEC50: 9.70
  R3 Selectivity: 1.5
[2]
  pEC50: 9.52

## HSDAVFTDNYTRLRKQMAAKKYLNSIKKK [Peptide R3P54]
[1]
  pEC50: 9.30
  R3 Selectivity: >200
[2]
  pEC50: < 7.00

## HSDAVFTDNYTRLRKQVAAKKYLQSILNK [Peptide R3P94]
[1]
  pEC50: 10.05
  R3 Selectivity: 100
[2]
  pEC50: 8.05

## HSDAVFTDNYTRLRKQMAAKKYLNSIENKR [Peptide R3P119]
[1]
  pEC50: 9.30
  R3 Selectivity: 30
[2]
  pEC50: 7.82

## HSDAVFTDNYTRLRKQMASKKYLNSIKNRI [rR3P178]
[1]
  pEC50: 9.12
  R3 Selectivity: 110
[2]
  pEC50: 7.10

## HSDAVFTDNYTRLRKQMAVKKYLNSIKKK [Peptide R3P58]
[1]
  pEC50: 9.49
  R3 Selectivity: 170
[2]
  pEC50: 7.26

## H-HSDGIFTDSYSRYRKQMAVKKYLAAVKQGGT-NH2 [Peptide R3P16]
[1]
  pEC50: 8.00
  R3 Selectivity: 1.4
[2]
  pEC50: 7.85

## HSDAVFTDNYTRLRKQVAAKKYLNSIKK [Peptide R3P62]
[1]
  pEC50: 8.74
  R3 Selectivity: 100
[2]
  pEC50: 6.74

## HSDAVFTDNYTRLRKQMAVKKYLNDILN [Peptide R3P48]
[1]
  pEC50: 9.89
  R3 Selectivity: 8
[2]
  pEC50: 9.00

## HSDAVFTENYTKLRKQLAAKKYLNDLKK [Peptide R3P5]
[1]
  pEC50: 8.15
  R3 Selectivity: 30
[2]
  pEC50: 6.70

## HSDGIFTDSYSRKRKQMAVKKYLAAVL-NH2 [PAC13]
[1]
  pEC50: 9.30
  R3 Selectivity: 6
[2]
  pEC50: 8.52

## HSDAVFTDNYTRLRKQLAVKKYLNSIKKGGT [Peptide R3P25]
[1]
  pEC50: 9.15
  R3 Selectivity: 20
[2]
  pEC50: 7.82

## HSDAVFTDNYTRLRKQMAKKKYLNSIPNRI [rR3P181]
[1]
  pEC50: 8.29
  R3 Selectivity: 50
[2]
  pEC50: 6.55

## HSDAVFTDNYTRLRKQMAAKKYLNSIVNKR [Peptide R3P131]
[1]
  pEC50: 9.52
  R3 Selectivity: 70
[2]
  pEC50: 7.70

## HSDAVFTDNYTRLRKQLAAKKYLNSIKNGGT [Peptide R3P30]
[1]
  pEC50: 9.40
  R3 Selectivity: 50
[2]
  pEC50: 7.70

## H-HSDGIFTESYSRYRKQMAVKKYLAALKKKRYKQRVKNK [Peptide R3P6]
[1]
  pEC50: 7.10
  R3 Selectivity: 3
[2]
  pEC50: 6.66

## HSDAVFTDNYTRLRKQMAAKKYLNSIRNKR [Peptide R3P128]
[1]
  pEC50: 9.52
  R3 Selectivity: 200
[2]
  pEC50: 7.22

## HSDGIFTDSYSRYRKQMAVKKYLAAVK-NH2 [PAC27]
[1]
  pEC50: 8.96
  R3 Selectivity: 1.4
[2]
  pEC50: 8.82

## HSDGIFTDKYSRYRKQMAVKKYLAAVL-NH2 [PAC9]
[1]
  pEC50: 9.15
  R3 Selectivity: 1
[2]
  pEC50: 9.05

## HSDAVFTDNYTRLRKQMAFKKYLNSIKNKR [Peptide R3P100]
[1]
  pEC50: 9.52
  R3 Selectivity: 30
[2]
  pEC50: 8.00

## HSDAVFTDNYTKLRKQLAAKKYLNDILNGGT [Peptide R3P11]
[1]
  pEC50: 8.52
  R3 Selectivity: 3
[2]
  pEC50: 8.00

## H-HSDAVFTDNYTRLRKQMAGKKYLNSIRNRI [rR3P190]
[1]
  pEC50: 8.66
  R3 Selectivity: 100
[2]
  pEC50: 6.66

## HSDAVFTDNYTRLRKQLAAKKYLNDIKKGG [Peptide R3P31]
[1]
  pEC50: 9.52
  R3 Selectivity: >300
[2]
  pEC50: < 7.00

## HSDGIFTDSYSRYRKQMAVKKYLAAKL-NH2 [PAC26]
[1]
  pEC50: 9.52
  R3 Selectivity: 1
[2]
  pEC50: 9.60

## H-HSDAVFTDNYTRLRKQMAAKKYLNSIKNKH [Peptide R3P159]
[1]
  pEC50: 9.30
  R3 Selectivity: 400
[2]
  pEC50: 6.70

## HSDAVFTDNYTRLRKQMAGKKYLNSIPNRI [rR3P180]
[1]
  pEC50: 8.17
  R3 Selectivity: >20
[2]
  pEC50: < 7.00

## HSDAVFTDNYTRLRKQMAAKKYLNSIKNHR [Peptide R3P140]
[1]
  pEC50: 9.52
  R3 Selectivity: 50
[2]
  pEC50: 7.82
